For one experiment, the target named is Endothelial lipase (EL) (Homo sapiens (Human), UniProt Q9Y5X9). Kind of experiment: EL assay: endothelial lipase activity with fluorescent substrate A10070 in DMPG vesicles. It counts as biochemical. As to the method: (§1) Endothelial lipase (EL) and hepatic lipase (HL) activities were measured using a fluorescent substrate, A10070, (Invitrogen, CA) doped into an artificial vesicle containing DMPG (Avanti Polar Lipids) as the excipient. Vesicles were prepared by combining 571 μL of 29 mM DMPG in a 1:1 mixture of MeOH and CHCl3 with 2000 μL of 1 mM A10070 in a 1:1 mixture of MeOH and CHCl3. The mixture was dried under nitrogen in multiple vials then resuspended in 20 mL total volume of 50 mM HEPES pH 8.0 buffer containing 50 mM NaCl and 0.2 mM EDTA. The sample was allowed to sit at room temperature for 15 min and then was sonicated 3×4 mins on ice with a Branson Sonicator using duty cycle 1. This preparation provides vesicles with a mole fraction of 0.11 for the FRET substrate.
Endothelial lipase (EL), sequence (Q9Y5X9 21-500): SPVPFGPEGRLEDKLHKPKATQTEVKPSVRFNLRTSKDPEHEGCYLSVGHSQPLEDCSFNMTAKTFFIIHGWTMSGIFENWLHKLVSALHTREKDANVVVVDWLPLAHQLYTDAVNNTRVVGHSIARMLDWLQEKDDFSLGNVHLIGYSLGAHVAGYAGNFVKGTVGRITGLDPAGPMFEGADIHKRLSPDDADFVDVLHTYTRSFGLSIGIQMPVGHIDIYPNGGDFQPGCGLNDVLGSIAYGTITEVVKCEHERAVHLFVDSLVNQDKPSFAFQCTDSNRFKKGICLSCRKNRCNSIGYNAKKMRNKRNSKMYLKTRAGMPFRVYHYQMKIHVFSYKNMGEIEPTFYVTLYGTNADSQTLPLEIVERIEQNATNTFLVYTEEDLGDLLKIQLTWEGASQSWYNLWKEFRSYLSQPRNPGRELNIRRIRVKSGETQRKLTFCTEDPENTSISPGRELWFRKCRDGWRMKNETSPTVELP
(§2) The enzymatic assay was measured using 384-well white Optiplates. Each well contained 20 μL of assay buffer (50 mM HEPES pH 8.0, 50 mM NaCl and 1 mM CaCl2) and 0.25 μL of a DMSO solution containing a compound of interest. EL or HL (10 μL) was added and allowed to incubate with the compound for 30 min at 37° C. The source of EL was conditioned media obtained from HT-1080 cells that were transformed using RAGE technology (Athersys) to overexpress endogenous EL, and HL was partially purified from conditioned media obtained from COS cells overexpressing HL. The reaction was started by the addition of 10 μL of a 1:10 dilution of vesicles. The final total reaction volume was […]. The reaction rates were measured on a Gemini plate reader with an excitation wavelength of 490 nm and an emission wavelength of 530 nm. Readings were taken over a period of 60 minutes, and the slope between 300 and 900 secs of the readout was used to calculate the rate of the reaction.

A further experiment addresses hepatic lipase (HL) (Homo sapiens (Human), UniProt P11150). Description: HL assay: hepatic lipase activity with fluorescent substrate A10070 in DMPG vesicles. Type of experiment: biochemical. As to the method: as §1, §2

hepatic lipase (HL), sequence (P11150 23-499, species assumed): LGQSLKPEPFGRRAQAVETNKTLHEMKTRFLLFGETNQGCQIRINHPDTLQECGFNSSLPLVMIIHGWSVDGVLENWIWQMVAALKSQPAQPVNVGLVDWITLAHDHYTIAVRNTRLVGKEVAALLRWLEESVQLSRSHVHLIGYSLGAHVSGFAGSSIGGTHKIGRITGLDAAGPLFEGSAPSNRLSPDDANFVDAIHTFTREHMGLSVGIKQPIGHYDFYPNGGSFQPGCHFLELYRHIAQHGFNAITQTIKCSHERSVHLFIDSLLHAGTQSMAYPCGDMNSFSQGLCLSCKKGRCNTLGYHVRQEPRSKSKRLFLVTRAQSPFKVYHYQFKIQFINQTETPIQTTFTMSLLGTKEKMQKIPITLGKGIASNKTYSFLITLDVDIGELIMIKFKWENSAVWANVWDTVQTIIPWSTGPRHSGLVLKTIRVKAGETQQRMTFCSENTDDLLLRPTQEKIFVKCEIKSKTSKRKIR

Turning to `CS(=O)(=O)C(C(=O)NCCS(N)(=O)=O)c1nc2ccc(-c3ccc(OCCN4CCCCC4)cc3)cc2s1` (stereo not drawn) [Example B42, 2-(methylsulfonyl)-2-(6-(4-(2-(1-piperidinyl)ethoxy)phen-yl)-1,3-benzothiazol-2-yl)-N-(2-sulfamoylethyl)a-cetamide], the IC50 (as a rule, the concentration at which inhibition is half-maximal) on Endothelial lipase (EL) was less than 0.01 µM; on hepatic lipase (HL) it was 0.01 µM.

As to `CC1CCN(C(=O)c2ccc(-c3ccc4nc(C(C(=O)NCCS(N)(=O)=O)S(C)(=O)=O)sc4c3)cc2)CC1` (stereo not drawn) [Example B43, 2-(6-{4-[(4-methyl-1-piperidinyl)carbonyl]phen-yl}-1,3-benzothiazol-2-yl)-2-(methylsulfonyl)-N-(2-sulfamoylethyl)a-cetamide], the IC50 against Endothelial lipase (EL) and against hepatic lipase (HL) was less than 0.01 µM throughout.

As to `CC(=O)Nc1ccc(-c2ccc3nc(C(C(=O)NCCS(N)(=O)=O)S(=O)(=O)Cc4ccccc4)sc3c2)cc1` (stereo not drawn) [Example B44, 2-(6-(4-acetamidophenyl)-1,3-benzothiazol-2-yl)-2-(benzylsulfonyl)-N-(2-sulfamoylethyl)acetamide], the IC50 was less than 0.01 µM at Endothelial lipase (EL) and 0.148 µM on hepatic lipase (HL).

In the case of `NS(=O)(=O)CCNC(=O)C(c1nc2ccc(-c3ccc(C(=O)NCC(F)(F)F)cc3)cc2s1)S(=O)(=O)CCC(F)(F)F` (stereo not drawn) [Example B45, 4-(2-(2-oxo-2-((2-sulfamoylethyl)amino)-1-((3,3,3-trifluoropropyl)sul-fonyl)ethyl)-1,3-benzothiazol-6-yl)-N-(2,2,2-trifluoroethyl)ben-zamide], the IC50 at Endothelial lipase (EL) was less than 0.01 µM; against hepatic lipase (HL), 0.038 µM.

In the case of `NS(=O)(=O)CCNC(=O)C(c1nc2ccc(-c3ccc(C(=O)NCCO)cc3)cc2s1)S(=O)(=O)CCC(F)(F)F` (stereo not drawn) [Example B46, N-(2-hydroxyethyl)-4-(2-(2-oxo-2-((2-sulfamoylethyl)amino)-1-((3,3,3-trifluoropropyl)sul-fonyl)ethyl)-1,3-benzothiazol-6-yl)ben-zamide], the concentration for half-maximal inhibition (IC50) was less than 0.01 µM against Endothelial lipase (EL) and 0.52 µM against hepatic lipase (HL).

On to `CS(=O)(=O)C(C(=O)NCCS(N)(=O)=O)c1nc2ccc(-c3ccc(CCO)cc3)cc2s1` (stereo not drawn) [Example B47, 2-(6-(4-(2-hydroxyethyl)phenyl)-1,3-benzothiazol-2-yl)-2-(methylsulfonyl)-N-(2-sulfamoylethyl)acetamide], for which the concentration for half-maximal inhibition (IC50) on Endothelial lipase (EL) was less than 0.01 µM; against hepatic lipase (HL), 0.035 µM.

As to `COCCOc1ccc(-c2ccc3nc(C(C(=O)NCCS(N)(=O)=O)S(C)(=O)=O)sc3c2)cc1` (stereo not drawn) [Example B48, 2-(6-(4-(2-methoxyethoxy)phenyl)-1,3-benzothiazol-2-yl)-2-(methylsulfonyl)-N-(2-sulfamoylethyl)acetamide], the half-inhibitory concentration (IC50) against Endothelial lipase (EL) was less than 0.01 µM; against hepatic lipase (HL), 0.011 µM.

As for `COCCNC(=O)c1cccc(-c2ccc3nc(C(C(=O)NCCS(N)(=O)=O)S(C)(=O)=O)sc3c2)c1` (stereo not drawn) [Example B49, N-(2-methoxyethyl)-3-(2-(1-(methylsulfonyl)-2-oxo-2-((2-sulfamoylethyl)a-mino)ethyl)-1,3-benzothiazol-6-yl)ben-zamide], the IC50 against Endothelial lipase (EL) was less than 0.01 µM; against hepatic lipase (HL) it was 0.152 µM.

As to `CS(=O)(=O)C(C(=O)NCCS(N)(=O)=O)c1nc2ccc(-c3ccc(C#N)cc3)cc2s1` (stereo not drawn) [Example B50, 2-(6-(4-cyanophenyl)-1,3-benzothiazol-2-yl)-2-(methylsulfonyl)-N-(2-Sulfamoylethyl)acetamide], the IC50 at Endothelial lipase (EL) was less than 0.01 µM; at hepatic lipase (HL), 0.014 µM.

`CS(=O)(=O)C(C(=O)NCCS(N)(=O)=O)c1nc2ccc(-c3cccc(C#N)c3)cc2s1` (stereo not drawn) [Example B51, 2-(6-(3-cyanophenyl)-1,3-benzothiazol-2-yl)-2-(methylsulfonyl)-N-(2-sulfamoylethyl)acetamide]: the IC50 against Endothelial lipase (EL) and at hepatic lipase (HL) was less than 0.01 µM throughout.

For the compound `CC(=O)Nc1cccc(-c2ccc3nc(C(C(=O)NCCS(N)(=O)=O)S(C)(=O)=O)sc3c2)c1` (stereo not drawn) [Example B52, 2-(6-(3-acetamidophenyl)-1,3-benzothiazol-2-yl)-2-(methylsulfonyl)-N-(2-sulfamoylethyl)acetamide], the figures for the concentration for half-maximal inhibition (IC50) on Endothelial lipase (EL) and against hepatic lipase (HL) were less than 0.01 µM and 0.066 µM, respectively.

Take `NS(=O)(=O)CCNC(=O)C(c1nc2ccc(-c3ccc(CCO)cc3)cc2s1)S(=O)(=O)CCC(F)(F)F` (stereo not drawn) [Example B53, 2-(6-(4-(2-hydroxyethyl)phen-yl)-1,3-benzothiazol-2-yl)-N-(2-sulfamoylethyl)-2-((3,3,3-trifluoropropyl)sul-fonyl)acetamide]: the IC50 was less than 0.01 µM against Endothelial lipase (EL) and 0.152 µM at hepatic lipase (HL).

Take `NS(=O)(=O)CCNC(=O)C(c1nc2ccc(-c3ccc(OCCN4CCCCC4)cc3)cc2s1)S(=O)(=O)CCC(F)(F)F` (stereo not drawn) [Example B54, 2-(6-(4-(2-(1-piperidinyl)ethoxy)phenyl)-1,3-benzothiazol-2-yl)-N-(2-sulfamoylethyl)-2-((3,3.3-trifluoropropyl)sul-fonyl)acetamide]: the IC50 against Endothelial lipase (EL) was less than 0.01 µM; against hepatic lipase (HL), 0.023 µM.

In the case of `CC(=O)Nc1ccc(-c2ccc3nc(C(C(=O)NCCS(N)(=O)=O)S(=O)(=O)CCC(F)(F)F)sc3c2)cc1` (stereo not drawn) [Example B55, 2-(6-(4-acetamidophenyl)-1,3-benzothiazol-2-yl)-N-(2-sulfamoylethyl)-2-((3,3,3-trifluoropropyl)sul-fonyl)acetamide], the IC50 was less than 0.01 µM against Endothelial lipase (EL) and 0.055 µM against hepatic lipase (HL).

Take `CS(=O)(=O)C(C(=O)NCCS(N)(=O)=O)c1nc2ccc(-c3ccc(CO)cc3)cc2s1` (stereo not drawn) [Example B56, 2-(6-(4-(hydroxymethyl)phen-yl)-1,3-benzothiazol-2-yl)-2-(methylsulfonyl)-N-(2-sulfamoylethyl)a-cetamide]: the concentration for half-maximal inhibition (IC50) against Endothelial lipase (EL) was less than 0.01 µM; against hepatic lipase (HL) it was 0.122 µM.

As to `CS(=O)(=O)C(C(=O)NCCS(N)(=O)=O)c1nc2ccc(-c3ccc(S(=O)(=O)NCCO)cc3)cc2s1` (stereo not drawn) [Example B57, 2-(6-(4-((2-hydroxyeth-yl)sulfamoyl)phenyl)-1,3-benzothiazol-2-yl)-2-(methylsulfonyl)-N-(2-sulfamoylethyl)acetamide], the figures for the IC50 on Endothelial lipase (EL) and on hepatic lipase (HL) were less than 0.01 µM and 0.144 µM, respectively.

`CS(=O)(=O)C(C(=O)NCCS(N)(=O)=O)c1nc2ccc(-c3cccc(CCO)c3)cc2s1` (stereo not drawn) [Example B58, 2-(6-(3-(2-hydroxyethyl)phenyl)-1,3-benzothiazol-2-yl)-2-(methylsulfonyl)-N-(2-sulfamoylethyl)acetamide]: the IC50 against Endothelial lipase (EL) is less than 0.01 µM; at hepatic lipase (HL), 0.036 µM.

With `NS(=O)(=O)CCNC(=O)C(c1nc2ccc(-c3ccc(C(=O)NCCO)cc3)cc2s1)S(=O)(=O)CC1CC1` (stereo not drawn) [Example B59, 4-(2-(1-((cyclopropylmeth-yl)sulfonyl)-2-oxo-2-((2-sulfamoylethyl)amino)eth-yl)-1,3-benzothiazol-6-yl)-N-(2-hydroxyethyl)ben-zamide], the half-maximal inhibitory concentration (IC50) against Endothelial lipase (EL) was less than 0.01 µM; against hepatic lipase (HL), 0.102 µM.

With `NS(=O)(=O)CCNC(=O)C(c1nc2ccc(-c3ccc(CCO)cc3)cc2s1)S(=O)(=O)CC1CC1` (stereo not drawn) [Example B60, 2-((cyclopropylmethyl)sul-fonyl)-2-(6-(4-(2-hydroxyethyl)phenyl)-1,3-benzothiazol-2-yl)-N-(2-sulfamoylethyl)acetamide], the IC50 was less than 0.01 µM against Endothelial lipase (EL) and 0.061 µM at hepatic lipase (HL).

Consider `CN1CCOc2cc(-c3ccc4nc(C(C(=O)NCCS(N)(=O)=O)S(C)(=O)=O)sc4c3)ccc21` (stereo not drawn) [Example B61, 2-(6-(4-methyl-3,4-dihydro-2H-1,4-benzoxazin-7-yl)-1,3-benzothiazol-2-yl)-2-(methylsulfonyl)-N-(2-sulfamoylethyl)acetamide], for which the IC50 against Endothelial lipase (EL) was less than 0.01 µM; against hepatic lipase (HL) it was 0.05 µM.

As for `CS(=O)(=O)C(C(=O)NCCS(N)(=O)=O)c1nc2ccc(-c3cccc(N4CCCC4)c3)cc2s1` (stereo not drawn) [Example B62, 2-(methylsulfonyl)-2-(6-(3-(1-pyrrolidinyl)phenyl)-1,3-benzothiazol-2-yl)-N-(2-sulfamoylethyl)a-cetamide], the IC50 on Endothelial lipase (EL) was 0.0012 µM; against hepatic lipase (HL) it was 0.001 µM.

As for `COCc1ccc(-c2ccc3nc(C(C(=O)NCCS(N)(=O)=O)S(C)(=O)=O)sc3c2)cc1` (stereo not drawn) [Example B63, 2-(6-(4-(methoxymethyl)phen-yl)-1,3-benzothiazol-2-yl)-2-(methylsulfonyl)-N-(2-sulfamoylethyl)a-cetamide], the IC50 against Endothelial lipase (EL) was found to be 0.0005 µM; against hepatic lipase (HL), 0.0026 µM.

With `COCCOC(=O)Nc1ccc(-c2ccc3nc(C(C(=O)NCCS(N)(=O)=O)S(C)(=O)=O)sc3c2)cc1` (stereo not drawn) [Example B64, 2-methoxyethyl(4-(2-(1-(methylsulfonyl)-2-oxo-2-((2-sulfamoylethyl)amino)eth-yl)-1,3-benzothiazol-6-yl)phenyl)carbamate], the 50% inhibitory concentration (IC50) against Endothelial lipase (EL) was 0.0005 µM; at hepatic lipase (HL), 0.0019 µM.

Take `NS(=O)(=O)CCNC(=O)C(c1nc2ccc(-c3ccc(C(=O)NCC(F)(F)F)cc3)cc2s1)S(=O)(=O)Cc1ccc(F)cc1` (stereo not drawn) [Example B65, 4-(2-(1-((4-fluorobenzyl)sul-fonyl)-2-oxo-2-((2-sulfamoylethyl)amino)ethyl)-1,3-benzothiazol-6-yl)-N-(2,2,2-trifluoroethyl)ben-zamide]: the IC50 was less than 0.01 µM against Endothelial lipase (EL) and 0.061 µM at hepatic lipase (HL).
